According to ChEMBL document CHEMBL1201862, “PubChem BioAssay data set” (2004):
“And” between values parts separate entries of the source, which are not always exact repeats. Equal values may be shown once. The source made the active and inactive calls.

Experiments:
[1] = tested on: H9c2; assay: cells; assay type: functional, cell-based; details: Rattus norvegicus, H9c2, Myocardium;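 also: confirmatory concentration-response retest of ultra-high-throughput screening hits for modulation of myocardial damage; cell death induced by hydrogen peroxide oxidative stress; compound pretreatment for 60 min then peroxide exposure for 2 h; potency is for protecting the cells against peroxide damage rather than for killing them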
[2] = target: Cytochrome P450 3A4 (Homo sapiens, UniProt P08684);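 also: CYP3A4 tested as one member of a cytochrome P450 panel screen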
[3] = target: Cytochrome P450 2C9 (Homo sapiens, UniProt P11712)
[4] = target: T1, Rac GTPase-activating protein 1 (Homo sapiens, UniProt Q9H0H5); assay: MgcRacGAP GTPase-activating activity inhibitors, confirmation, biochemical, ADP Hunter fluorescence, primary and confirmatory (AID 624330); assay type: functional
T1 sequence (Q9H0H5 whole entry): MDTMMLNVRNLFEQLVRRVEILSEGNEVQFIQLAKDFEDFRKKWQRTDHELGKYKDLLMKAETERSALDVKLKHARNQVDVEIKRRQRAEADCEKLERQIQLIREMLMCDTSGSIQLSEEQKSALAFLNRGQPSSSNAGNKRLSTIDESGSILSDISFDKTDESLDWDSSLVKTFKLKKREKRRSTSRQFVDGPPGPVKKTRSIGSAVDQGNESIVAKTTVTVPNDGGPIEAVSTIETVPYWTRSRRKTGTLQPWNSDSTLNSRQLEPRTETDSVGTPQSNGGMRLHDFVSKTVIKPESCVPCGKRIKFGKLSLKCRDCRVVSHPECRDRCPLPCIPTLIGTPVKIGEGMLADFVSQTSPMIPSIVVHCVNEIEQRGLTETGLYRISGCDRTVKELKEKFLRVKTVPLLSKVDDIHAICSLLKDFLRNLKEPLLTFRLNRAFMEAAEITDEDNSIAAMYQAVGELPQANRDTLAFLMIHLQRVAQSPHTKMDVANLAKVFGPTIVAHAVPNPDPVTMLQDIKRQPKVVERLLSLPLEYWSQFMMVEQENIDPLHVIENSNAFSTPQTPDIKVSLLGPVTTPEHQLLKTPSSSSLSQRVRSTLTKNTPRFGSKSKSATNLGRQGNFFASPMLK

[5] = tested on: INS1; assay: beta cell apoptosis inhibitors, cytokine rescue, dose response, luminescence, retest (AID 449756); assay type: functional, cell-based; details: Rattus norvegicus;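 also: cell death triggered by IL-1 beta plus TNF-alpha plus IFN-gamma mixture; protective hits raise ATP signal compared with cytokine alone wells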
[6] = tested on: Streptococcus sp. 'group A'; assay: growth inhibition of control SK(-) GAS strain, dose response, counter-screen for streptokinase expression inhibitor project, luminescence, kanamycin, BacTiterGlo, confirmation (AID 1900); assay type: functional, organism-based
[7] = target: T2, Streptokinase A (Streptococcus pyogenes serotype M1, UniProt P10520); assay: S. pyogenes streptokinase expression inhibitors, potency, dose response, plasminogen activation absorbance, OD405 (AID 1914); assay type: functional, Streptococcus pyogenes M1 GAS;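 also: secreted streptokinase activity via plasminogen activation per viability signal from cell pellet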
T2 sequence (P10520 whole entry): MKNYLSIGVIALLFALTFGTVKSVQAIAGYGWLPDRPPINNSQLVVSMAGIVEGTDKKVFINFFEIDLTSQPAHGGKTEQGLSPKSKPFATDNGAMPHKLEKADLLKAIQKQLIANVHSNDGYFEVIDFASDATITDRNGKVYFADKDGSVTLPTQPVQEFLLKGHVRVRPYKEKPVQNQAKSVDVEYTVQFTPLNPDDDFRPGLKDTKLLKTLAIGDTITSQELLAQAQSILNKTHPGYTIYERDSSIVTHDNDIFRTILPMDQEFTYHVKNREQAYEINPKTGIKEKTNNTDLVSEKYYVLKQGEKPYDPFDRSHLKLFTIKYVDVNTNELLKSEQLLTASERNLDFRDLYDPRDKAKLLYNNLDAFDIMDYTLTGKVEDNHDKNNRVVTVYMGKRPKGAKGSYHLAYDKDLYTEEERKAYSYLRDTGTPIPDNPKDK

[8] = tested on: Streptococcus; assay: Group A Streptococcus viability loss, dose response, counter-screen for streptokinase expression inhibitor project, luminescence, BacTiterGlo (AID 1915); assay type: functional, organism-based;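 also: potency for reduction of bacterial viability or growth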
[9] = target: Cytochrome P450 2C19 (Homo sapiens, UniProt P33261); assay: Cytochrome panel assay with activity outcomes. Panel member name: p450-cyp2c19 Compounds with AC50 equal or less than 10 uM are considered active; assay type: functional; details: read-out: AC50
[10] = target: T3, RNA-binding protein pos-1 (Caenorhabditis elegans, UniProt G5EF15); assay: inhibitors of POS-1/mex-3 RNA binding, dose response, biochemical, fluorescence polarization (AID 1964);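 also: purified POS-1 fused to maltose binding protein made in E. coli; potency of compounds blocking POS-1 binding to fluorescent RNA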
T3 sequence (G5EF15 whole entry): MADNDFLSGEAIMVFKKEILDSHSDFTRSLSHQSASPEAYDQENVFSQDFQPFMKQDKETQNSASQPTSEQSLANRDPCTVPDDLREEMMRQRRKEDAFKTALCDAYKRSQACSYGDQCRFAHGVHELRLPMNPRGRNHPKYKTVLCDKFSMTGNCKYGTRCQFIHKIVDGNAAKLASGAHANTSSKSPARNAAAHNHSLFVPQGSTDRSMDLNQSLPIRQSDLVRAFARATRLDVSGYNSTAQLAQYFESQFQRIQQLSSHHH

[11] = target: T4, Zinc finger protein mex-5 (Caenorhabditis elegans, UniProt Q9XUB2); assay: MEX-5/TCR-2 RNA interaction inhibitors, dose response, biochemical, C. elegans, fluorescence polarization (AID 1960)
T4 sequence (Q9XUB2 whole entry): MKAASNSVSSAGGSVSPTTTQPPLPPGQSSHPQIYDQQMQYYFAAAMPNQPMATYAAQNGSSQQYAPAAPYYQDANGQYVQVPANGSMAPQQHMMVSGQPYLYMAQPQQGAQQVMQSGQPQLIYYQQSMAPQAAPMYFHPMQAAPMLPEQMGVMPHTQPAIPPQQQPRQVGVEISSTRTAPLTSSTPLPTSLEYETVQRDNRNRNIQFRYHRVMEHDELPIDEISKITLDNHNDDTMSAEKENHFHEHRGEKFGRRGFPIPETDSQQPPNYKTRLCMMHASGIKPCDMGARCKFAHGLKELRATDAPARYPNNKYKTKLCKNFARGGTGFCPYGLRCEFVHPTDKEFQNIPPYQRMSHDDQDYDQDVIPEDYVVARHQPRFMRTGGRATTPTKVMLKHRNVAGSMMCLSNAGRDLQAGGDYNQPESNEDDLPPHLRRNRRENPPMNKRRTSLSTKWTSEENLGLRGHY

Chain of Cytochrome P450 2C9 (P11712 whole entry): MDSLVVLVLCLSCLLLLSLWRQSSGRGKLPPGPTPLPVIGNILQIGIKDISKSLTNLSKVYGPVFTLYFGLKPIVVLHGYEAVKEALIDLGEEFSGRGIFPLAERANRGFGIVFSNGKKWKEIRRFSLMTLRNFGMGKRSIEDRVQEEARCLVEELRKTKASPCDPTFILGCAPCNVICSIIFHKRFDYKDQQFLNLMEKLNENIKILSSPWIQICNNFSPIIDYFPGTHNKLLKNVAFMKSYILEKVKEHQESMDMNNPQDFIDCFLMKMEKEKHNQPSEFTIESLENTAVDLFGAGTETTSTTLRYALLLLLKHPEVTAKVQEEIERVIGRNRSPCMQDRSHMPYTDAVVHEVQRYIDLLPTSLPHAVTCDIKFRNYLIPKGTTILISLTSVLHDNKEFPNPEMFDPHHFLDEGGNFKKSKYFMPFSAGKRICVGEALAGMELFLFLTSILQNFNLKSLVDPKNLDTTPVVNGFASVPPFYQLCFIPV
Chain of Cytochrome P450 2C19 (P33261 whole entry, the tested form may be a part): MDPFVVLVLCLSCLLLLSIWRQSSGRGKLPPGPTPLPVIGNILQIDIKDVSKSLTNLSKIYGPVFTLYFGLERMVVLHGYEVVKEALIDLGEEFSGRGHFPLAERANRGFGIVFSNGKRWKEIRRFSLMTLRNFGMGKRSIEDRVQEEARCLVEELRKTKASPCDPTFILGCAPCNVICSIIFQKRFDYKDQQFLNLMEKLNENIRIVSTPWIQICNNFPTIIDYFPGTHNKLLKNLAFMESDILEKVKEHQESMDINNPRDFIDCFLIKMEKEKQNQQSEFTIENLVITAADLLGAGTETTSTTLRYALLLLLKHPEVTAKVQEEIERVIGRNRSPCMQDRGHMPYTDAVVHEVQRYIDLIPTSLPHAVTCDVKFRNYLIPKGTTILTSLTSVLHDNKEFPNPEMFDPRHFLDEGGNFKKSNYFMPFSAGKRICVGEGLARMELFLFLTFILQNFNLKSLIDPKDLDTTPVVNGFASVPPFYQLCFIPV
Chain of Cytochrome P450 3A4 (P08684 whole entry): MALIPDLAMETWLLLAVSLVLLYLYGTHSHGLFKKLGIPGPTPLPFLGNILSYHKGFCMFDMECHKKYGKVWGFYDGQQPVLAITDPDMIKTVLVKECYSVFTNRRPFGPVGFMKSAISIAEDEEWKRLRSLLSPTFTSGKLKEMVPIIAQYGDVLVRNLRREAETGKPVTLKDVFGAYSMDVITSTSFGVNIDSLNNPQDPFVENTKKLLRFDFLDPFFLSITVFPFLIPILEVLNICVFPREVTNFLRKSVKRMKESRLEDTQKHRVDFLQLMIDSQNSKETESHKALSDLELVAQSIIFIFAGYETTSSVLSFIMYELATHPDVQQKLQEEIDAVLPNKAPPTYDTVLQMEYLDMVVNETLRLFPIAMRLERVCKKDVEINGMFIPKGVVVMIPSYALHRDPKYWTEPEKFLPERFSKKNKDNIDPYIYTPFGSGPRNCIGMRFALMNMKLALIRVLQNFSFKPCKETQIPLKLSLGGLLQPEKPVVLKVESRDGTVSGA

## COC(=O)c1ccc(OCC(=O)Nc2ccccc2C(=O)NC2CC2)cc1
[1]
  IC50: > 79 µM (inactive)

## c1ccc2sc(NC3=NCN(C4CCCCCC4)CN3)nc2c1
[2]
  AC50: 7.94 µM (inconclusive)
[3]
  AC50: 39.8 µM (inconclusive)

## COc1ccc(-c2cc(C(=O)Nc3ccc(O)cc3)c3ccccc3n2)cc1OC
[4]
  IC50: 159 µM (active)

## OC(CNC1CCCCC1)COCCOc1ccc(Br)cc1 (stereo unspecified)
[5]
  AC50: 61.9 µM (active)

## C/C(=N\Nc1nc2ccc(Cl)cc2o1)c1ccccc1
[6]
  EC50: 6.79 µM (active)
[7]
  EC50: > 150 µM (not active)
[8]
  EC50: > 150 µM (not active)

## Cc1cccc(N2C(S)=NC(=Nc3c(C)cccc3C)C23CCOC(C)(C)C3)c1 (stereo unspecified)
[5]
  AC50: 3.8 µM (active)

## O=c1cnc2cnc(Nc3ccccc3)nc2n1Cc1ccc(F)cc1
[3]
  AC50: 7.94 µM (inconclusive)

## N[C@@H](C(=O)O)[C@H](CC(=O)O)c1ccc(Cl)cc1
[9]
  AC50: 25.1 µM (inconclusive)
[3]
  AC50: 39.8 µM (inconclusive)

## CC1Cc2ccccc2N1C(=O)Cn1cc([N+](=O)[O-])cn1 (stereo unspecified)
[9]
  AC50: 11.2 µM (inconclusive)
[3]
  AC50: 39.8 µM (inconclusive)

## O=C(CN1CCCCCC1)NN(Cc1ccccc1)c1ccccc1
[4]
  IC50: 301 µM (active)

## CCn1nc(CC(C)C)cc1C(=O)N1CCCC(Nc2ccc(OC)cc2)C1 (stereo unspecified)
[4]
  IC50: 121 µM (active)

## CCOC(=O)Cc1cc(O)n2ncc(-c3cccc(Br)c3)c2n1
[6]
  EC50: 2.14 µM (active)
[7]
  EC50: > 150 µM (not active)
[8]
  EC50: 18 µM (active)

## COc1cc(OC)c(Cl)cc1N
[4]
  IC50: 35.9 µM (active)

## CCc1nnc(NC(=O)c2ccc(S(=O)(=O)N(C)c3ccccc3)cc2)o1
[6]
  EC50: 7.35 µM (active)
[7]
  EC50: > 150 µM (not active)
[8]
  EC50: 8.72 µM (active)

## O=C(OCC(=O)c1cccs1)c1cccc(C(=O)OCC(=O)c2cccs2)n1
[2]
  AC50: 35.5 µM (inconclusive)

## O=C(CCc1nc(O)c2ccccc2n1)OCCOc1ccc(Cl)cc1
[1]
  IC50: > 79 µM (inactive)

## CN1CCN(C2=Cc3ccccc3Oc3ccc(Cl)cc32)CC1
[2]
  AC50: 31.6 µM (inconclusive)

## NCC[Se][Se]CCN
[3]
  AC50: 0.316 µM (inconclusive)

## COCCn1c(=O)cnc2cnc(OCc3ccccc3)nc21
[2]
  AC50: 20 µM (inconclusive)

## CCOC(=O)c1cc(-c2nnc(-c3cc(OC)c(OC)c(OC)c3)o2)c(C)nc1C
[1]
  IC50: > 79 µM (inactive)

## Cc1cccc(C)c1OC(=O)C(c1ccccc1)c1ccccc1
[6]
  EC50: 9.04 µM (active)
[7]
  EC50: 17 µM (active)
[8]
  EC50: > 150 µM (not active)

## COc1ccc2nc(O)c(CNc3ccc(C)c(C)c3)cc2c1
[1]
  IC50: > 79 µM (inactive)

## O=C(Cc1ccc(Br)cc1)OCC(=O)c1ccc2c(c1)OCCO2
[3]
  AC50: 7.94 µM (inconclusive)

## CC(C)CN1CC[C@@]2(CCCN(S(=O)(=O)c3ccccc3)C2)C1
[2]
  AC50: 5.01 µM (inconclusive)

## COc1ccc(-c2nc3cnc(N4CCN(C)CC4)nc3n(CCC#N)c2=O)cc1
[2]
  AC50: 39.8 µM (inconclusive)

## Cc1cc(-c2ccccc2)nc(O)c1S(=O)(=O)c1ccc(Cl)cc1
[9]
  AC50: 5.62 µM (inconclusive)
[3]
  AC50: 3.55 µM (inconclusive)

## CC(C)=NNc1cnnc2ccc([N+](=O)[O-])cc12
[1]
  IC50: 8.8 µM (active)

## Cc1nc2cnc(N(C)C)nc2n(CCc2ccccc2)c1=O
[2]
  AC50: 31.6 µM (inconclusive)

## Cc1cc(Oc2cnn(C(C)(C)C)c(=O)c2Cl)cc(C(C)C)c1
[6]
  EC50: 6.31 µM (active)
[7]
  EC50: 9.54 µM (active)
[8]
  EC50: 12.6 µM (active)

## CC(=O)Nc1ccc(S(=O)(=O)NCC2CCC(C(=O)N3CCN(c4ccccn4)CC3)CC2)cc1 (stereo unspecified)
[9]
  AC50: 10 µM (inconclusive)
[3]
  AC50: 3.98 µM (inconclusive)

## COC(=O)c1[nH]c2cc(OC)c(OC)cc2c1/C=N/Nc1ccccc1
[10]
  EC50: 20 µM (active)
[11]
  EC50: 20.3 µM (inconclusive)
[1]
  IC50: > 79 µM (inactive)

## CCOC(=O)c1c(NC(C)=O)sc2c(OC)cccc12
[3]
  AC50: 5.01 µM (inconclusive)

## Clc1nc2sccn2c1/C=N/n1cnc2ccccc21
[1]
  IC50: > 79 µM (inactive)

## C=C[C@H](CC(C)C)N(Cc1ccccc1)S(=O)(=O)N(Cc1ccccc1)[C@@H](C=C)CC(C)C
[5]
  AC50: 5.4 µM (active)

## O=C(CN1C(=O)C2CC=CCC2C1=O)Nc1nc(-c2ccc(F)cc2)cs1 (stereo unspecified)
[1]
  IC50: > 79 µM (inactive)

## CC(=O)c1cccc(NC(=O)C(C)OC(=O)CCc2nc(O)c3ccccc3n2)c1 (stereo unspecified)
[1]
  IC50: 15.7 µM (active)

## CN(C)c1ccccc1CN1CCCN(Cc2ccccc2N(C)C)C1c1ccncc1
[2]
  AC50: 3.16 µM (inconclusive)

## O=C1c2ccccc2CC1(Cc1ccccc1)Cc1ccccc1
[6]
  EC50: 6.04 µM (active)
[7]
  EC50: 12.9 µM (active)
[8]
  EC50: > 150 µM (not active)

## CCOc1ccc(NC(=O)c2cc3c(=O)n(C)c4ccccc4c3n2C)cc1
[1]
  IC50: > 79 µM (inactive)

## CC(C)CC(=O)Nc1ccc2c(c1)oc1ccccc12
[9]
  AC50: 2.82 µM (inconclusive)
[3]
  AC50: 8.91 µM (inconclusive)

## CCCn1nc(C(=O)OCC(=O)c2c(N)n(C)c(=O)n(C)c2=O)c2ccccc2c1=O
[1]
  IC50: 17.1 µM (active)

## O=C(CN1CCN(S(=O)(=O)c2cc(Cl)ccc2Cl)CC1)c1ccc(O)c(O)c1
[1]
  IC50: > 79 µM (inactive)

## C/C(CCN1CCc2nc(-c3ccccc3)c(-c3ccccc3)cc2C1)=N\O[C@@H](C)c1cn([C@H](CO)Cc2ccccc2)nn1
[2]
  AC50: 3.98 µM (inconclusive) and 3.16 µM (inconclusive)

## CCc1cc[n+](C2=Nc3ccccc3[N-]C2=C(C#N)C#N)cc1
[9]
  AC50: 25.1 µM (inconclusive)
[2]
  AC50: 15.8 µM (inconclusive)
[3]
  AC50: 14.1 µM (inconclusive)

## COC(=O)c1c(NC(=O)c2ccn(C)n2)sc2c1CCC2
[6]
  EC50: > 150 µM (not active)
[7]
  EC50: > 150 µM (not active)
[8]
  EC50: > 150 µM (not active)

## O=C(Nc1cccc(-c2nc3cccnc3s2)c1)c1ccco1
[1]
  IC50: > 79 µM (inactive)

## COc1ccc(CC(=O)N(Cc2ccccc2)c2ccccc2)cc1S(=O)(=O)N1CCOCC1
[1]
  IC50: 70.9 µM (inactive)

## Cc1cnc(CNc2ncncc2-c2ccccc2C#N)cn1
[2]
  AC50: 12.6 µM (inconclusive)

## C/C(=N/NC(=O)c1cccs1)c1cccc(NC(=O)C2CC2)c1
[1]
  IC50: > 79 µM (inactive)

## COC(=O)[C@H]1[C@H](c2ccccc2)C(=O)[C@@]2(O)c3ccccc3O[C@@]12c1ccccc1
[2]
  AC50: 3.16 µM (inconclusive)
[3]
  AC50: 6.31 µM (inconclusive)

## CCCCn1cc[n+](C2=C([N-]S(=O)(=O)c3ccc(Cl)cc3)C(=O)c3ccccc3C2=O)c1
[5]
  AC50: 4.18 µM (active)
